# Literature values as cited in patent publication US20020103221A1, “Use of growth hormone secretagogues for improvement of functional health status” (priority 2000, published 2002).
# Non-standard residues stand in square brackets, D forms with d. Residues, ends and D or L forms follow the SMILES beside them. d2Nal = N[C@H](Cc1ccc2ccccc2c1)C(=O)O; Aib = CC(C)(N)C(=O)O
# How the values were obtained:
# [1] = adult female rats
# [2] = GH-deficient adults
# [3] = test system: markers of bone formation and bone resorption; details: obese young males
# [4] = test system: serum insulin-like growth factor-I; quadriceps muscle; details: canines, during remobilization
molecule,measurement,setting,value
CC(C)(N)C(=O)N[C@@H](Cc1c[nH]cn1)C(=O)N[C@H](Cc1ccc2ccccc2c1)C(=O)N[C@H](Cc1ccccc1)C(=O)N[C@@H](CCCCN)C(N)=O [ipamorelin] (H-[Aib]H[d2Nal][dF]K-NH2),bone mass,[1],capacity to increase bone mass
growth hormone: growth hormone replacement given to GH-deficient adults,self-perceived well-being,[2],significant improvements
GHRP-6,bone mass,[1],capacity to increase bone mass
CC(C)(N)C(=O)N[C@H](COCc1ccccc1)C(=O)N1CCC2(CC1)CN(S(C)(=O)=O)c1ccccc12 [MK-0677],markers of bone formation and bone resorption,[3],increases
same,levels of serum insulin-like growth factor-I,[4],elevated
same,size and strength of the quadriceps muscle,[4],increased
